Where a name gives a salt, the structure may show the parent alone.

This is an account of results in publication PMC3265452 (PLoS Neglected Tropical Diseases, 2012).

The target in one assay is AaDOP2 (Aedes aegypti, UniProt H6D5H2). Description: AaDOP2 antagonist screen of the LOPAC1280 library (HEK-CRELuc-Aadop2 cells, luminescence). It counts as cell-based.
AaDOP2, sequence (H6D5H2 1-476): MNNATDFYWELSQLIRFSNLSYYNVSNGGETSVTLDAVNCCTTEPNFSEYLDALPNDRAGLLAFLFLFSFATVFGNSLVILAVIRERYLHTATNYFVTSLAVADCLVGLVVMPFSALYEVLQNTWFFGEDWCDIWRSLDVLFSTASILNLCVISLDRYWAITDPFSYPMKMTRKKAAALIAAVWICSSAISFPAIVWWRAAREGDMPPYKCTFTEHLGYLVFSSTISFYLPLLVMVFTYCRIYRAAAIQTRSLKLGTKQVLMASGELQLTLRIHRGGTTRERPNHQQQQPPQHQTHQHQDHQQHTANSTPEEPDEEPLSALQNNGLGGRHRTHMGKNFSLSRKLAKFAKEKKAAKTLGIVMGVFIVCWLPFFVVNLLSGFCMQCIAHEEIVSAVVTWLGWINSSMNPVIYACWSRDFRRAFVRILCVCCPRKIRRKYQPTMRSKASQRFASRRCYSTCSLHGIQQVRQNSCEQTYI
Conditions: not given
In the case of `C=CCn1c(=O)c2c(nc(-c3ccc(S(=O)(=O)O)cc3)n2C)n(C)c1=O` [Compound 129, 1-Allyl-3,7-dimethyl-8-p-sulfophenylxanthine], the “Compound effect (percent receptor signaling in presence of test compound, relative lux units relative to the SCH23390 control)” value came to 100. For `Cl.NC1(C(=O)O)CCCCC1` [Compound 132, 1-Amino-1-cyclohexanecarboxylic acid hydrochloride], the “Compound effect (percent receptor signaling in presence of test compound, relative lux units relative to the SCH23390 control)” value is reported as 110. In the case of `CC(N)C(=O)OC(C)(C)Cc1ccc(Cl)cc1` (centres unmarked) [Compound 133, Alaproclate hydrochloride], the “Compound effect (percent receptor signaling in presence of test compound, relative lux units relative to the SCH23390 control)” value turned out to be 110. On the same count and under the same terms, then `CCN(CC)CC.Nc1ncnc2c1ncn2C1OC2COP(O)(=S)O[C@@H]2[C@@H]1O` (some centres unmarked) [Compound 134, Rp-cAMPS triethylamine], with 67; and `N[C@H](CCCCCP(=O)(O)O)C(=O)O` [Compound 136, D(-)-2-Amino-7-phosphonoheptanoic acid], with 102. Regarding `CC(=O)c1ccc(S(=O)(=O)NC(=O)NC2CCCCC2)cc1` [Compound 137, Acetohexamide], the “Compound effect (percent receptor signaling in presence of test compound, relative lux units relative to the SCH23390 control)” value is given as 115. Still for that read-out and setting: with `CP(=O)(O)CCCN.Cl` [Compound 138, SKF 97541 hydrochloride] the figure was 101. Consider `NC/C=C\C(=O)O` [Compound 139, cis-4-Aminocrotonic acid], for which the “Compound effect (percent receptor signaling in presence of test compound, relative lux units relative to the SCH23390 control)” value is reported as 95. Same read-out and setting: with `Nc1ccc(CCNc2ncnc3c2ncn3[C@@H]2O[C@H](CO)[C@@H](O)[C@H]2O)cc1` [Compound 140, N6-2-(4-Aminophenyl)ethyladenosine] the figure was 97; with `CC1=C[C@@H]2c3cccc4[nH]cc(c34)C[C@H]2N(C)C1` [Compound 141, Agroclavine], 98. Regarding `O=c1nc2[nH]c3ccccc3nc-2c(=O)[nH]1` [Compound 144, Alloxazine], the “Compound effect (percent receptor signaling in presence of test compound, relative lux units relative to the SCH23390 control)” value is recorded as 104.

With `O=C(O)[C@@H]1C[C@H](C(=O)O)N1` [Compound 145, cis-Azetidine-2,4-dicarboxylic acid], the “Compound effect (percent receptor signaling in presence of test compound, relative lux units relative to the SCH23390 control)” value was determined as 112. Same read-out and setting: then `NC1(C(=O)O)CCc2cc(C(=O)O)ccc21` (centres unmarked) [Compound 148, AIDA], with 95.

For the molecule `CC(C)(C)c1o[nH]c(=O)c1CC(N)C(=O)O` (centres unmarked) [Compound 150, ATPA], the “Compound effect (percent receptor signaling in presence of test compound, relative lux units relative to the SCH23390 control)” value is 101. On the same count and under the same terms, then `CC(=O)C(C)=NO` [Compound 153, 2,3-Butanedione monoxime], with 131; and `CC[C@H](NC(=O)c1c(C)c(-c2ccccc2)nc2ccccc12)c1ccccc1` [Compound 154, SB 222200], with 92; and `COc1ccc2c(c1)c(CC(=O)O)c(C)n2C(=O)c1ccccc1` [Compound 155, 1-benzoyl-5-methoxy-2-methylindole-3-acetic acid], with 105.

On to `O=C1C=CC(=O)C=C1` [Compound 156, p-Benzoquinone], for which the “Compound effect (percent receptor signaling in presence of test compound, relative lux units relative to the SCH23390 control)” value is on record as 96. The same measure, in the same setting: then `O=S(=O)(NCCNC/C=C/c1ccc(Br)cc1)c1cccc2cnccc12` [Compound 158, H-89], with 46.

As to `O=C1O/C(=C/Br)CCC1c1cccc2ccccc12` (centres unmarked) [Compound 159, Bromoenol lactone], the “Compound effect (percent receptor signaling in presence of test compound, relative lux units relative to the SCH23390 control)” value was 103. Same read-out and setting: then `NC(=O)c1ccccc1` [Compound 160, Benzamide], with 100; and `O=[N+]([O-])c1cccc2c(Br)n[nH]c12` [Compound 161, 3-Bromo-7-nitroindazole], with 83; and `CC(C)C[C@H]1C(=O)N2CCC[C@H]2[C@]2(O)O[C@](NC(=O)[C@@H]3C=C4c5cccc6[nH]c(Br)c(c56)C[C@H]4N(C)C3)(C(C)C)C(=O)N12.CS(=O)(=O)O` [Compound 162, (+)-Bromocriptine methanesulfonate], with 37. Same read-out and setting: with `Nc1nc(OCc2ccccc2)c2nc[nH]c2n1` [Compound 163, O6-benzylguanine] the figure was 80; with `NC(=NCc1ccccc1)NC(=O)c1nc(Cl)c(N)nc1N` [Compound 166, Benzamil hydrochloride], 60; with `CCCCS(=N)(=O)CC[C@H](N)C(=O)O` (stereo partly drawn) [Compound 167, L-Buthionine-sulfoximine], 81.

Staying with this assay, now noted: 10 µM compound, 300 nM dopamine, 2 hr; hit = compound effect <20.
For the molecule `Cl.Cn1ccc2cc(NC(=O)Nc3cccnc3)ccc21` [Compound 135, SB 200646 hydrochloride], the “Compound effect (percent receptor signaling in presence of test compound, relative lux units relative to the SCH23390 control)” value is 106%.

In the case of `C#CC(N)CCC(=O)O` (centres unmarked) [Compound 142, gamma-Acetylinic GABA], the “Compound effect (percent receptor signaling in presence of test compound, relative lux units relative to the SCH23390 control)” value was 104%.

As to `CNC(=O)[C@H]1O[C@@H](n2cnc3c(NCc4ccc(N)cc4)ncnc32)[C@H](O)[C@@H]1O` [Compound 143, AB-MECA], the “Compound effect (percent receptor signaling in presence of test compound, relative lux units relative to the SCH23390 control)” value is on record as 100%. The same measure, in the same setting: with `CC(C)C1C2CCC(C2)C1N.Cl` (centres unmarked) [Compound 147, AGN 192403 hydrochloride] the figure was 109%; with `Cl.NC[C@@H]1O[C@H](C23CC4CC(CC(C4)C2)C3)Cc2c1ccc(O)c2O` [Compound 149, A-77636 hydrochloride], 113%; with `CCN(CC)c1ncnc2c1ncn2[C@@H]1O[C@H](COP(=O)([O-])OP(=O)([O-])C(Br)(Br)P(=O)([O-])O)[C@@H](O)[C@H]1O.[Na+].[Na+].[Na+]` [Compound 151, ARL 67156 trisodium salt], 115%. Same read-out and setting: with `C[C@H]1C[C@H]2[C@@H]3CCC4=CC(=O)C=C[C@]4(C)[C@@]3(Cl)[C@@H](O)C[C@]2(C)[C@@]1(O)C(=O)CO` [Compound 152, Beclomethasone] the figure was 97%. Same read-out and setting: then `Nc1nc2c(nc(Br)n2[C@@H]2O[C@@H]3COP(=O)([O-])O[C@H]3[C@H]2O)c(=O)[nH]1.[Na+]` [Compound 157, 8-Bromo-cGMP sodium], with 117%. Turning to `CC(=O)NBr` [Compound 164, N-Bromoacetamide], the “Compound effect (percent receptor signaling in presence of test compound, relative lux units relative to the SCH23390 control)” value is on record as 104%.
